# ± gives the expanded uncertainty stated by the source.
# Tests used:
# [1] = refractive index (Na D-line) (dimensionless); conditions: 101.33 kPa, Liquid, Standard Abbe refractometry
# [2] = 101.33 kPa, Liquid, Vibrating tube method
refractive index ([1]; 298.15 K),refractive index ([1]; 308.15 K),refractive index ([1]; 318.15 K),mass density ([2]; 298.15 K) [kg/m3],mass density ([2]; 308.15 K) [kg/m3],mass density ([2]; 318.15 K) [kg/m3],SMILES
1.3948 ± 0.0005,1.3904 ± 0.0005,1.3868 ± 0.0005,698.6 ± 2,690.5 ± 2,682.2 ± 2,CCCCCCCC [octane]
1.4892 ± 0.0006,1.4844 ± 0.0006,1.48 ± 0.0006,857.9 ± 2.1,849.4 ± 2.1,840.9 ± 2.1,CCCc1ccccc1 [propylbenzene]
1.4928 ± 0.0005,1.4879 ± 0.0005,1.4832 ± 0.0005,862.7 ± 2,853.8 ± 2,844.8 ± 2,CCc1ccccc1 [ethylbenzene]

# From the NIST ThermoML archive (doi:10.1016/j.tca.2015.08.023)
